pIC50: −log10 of the molar value.

The first experiment has as its system Groα secretion by HT-29 cells. Briefly: Inhibition of Groα secretion by HT-29 cells stimulated with IL-17A (ELISA). Format: cell-based, Human. The note with it: Homo sapiens, HT-29, 48 h, IL-17A 30 ng/ml, Groα in supernatant. How it is done:
Test example 2 Assay for inhibitory effect of compounds of the present invention against Groα secretion by HT-29 cells
Experimental objective: to measure the inhibitory effect of the compounds against Groα secretion by HT-29 cells, thereby evaluating the inhibition of the compounds on IL-17A pathway.
Experimental method: A cell suspension at 50,000 cells/ml was prepared, and 200 µl of the cell suspension was added to each well of a 96-well plate, i.e., 10,000 cells/well. The plate was cultured overnight. In the 96-well V-bottom plate, 5 mM compound solution was serially diluted 3-fold using DMSO, and the compound from each well was diluted 100-fold using a complete culture medium. IL-17A protein (R&D, #BT7955-025/CF) with a stock concentration of 100 µg/ml was diluted 333.33-fold using a complete culture medium. The compound and IL-17A were mixed at a volume ratio of 1:1 and incubated at 37°C for 30 minutes. 50 µl of a mixture of the compound and IL-17A was added to cell wells, and the final concentration of IL-17A protein was 30 ng/ml.
The mixture was incubated in a 37°C, 5% CO2 cell culture incubator for 48 hours. The concentration of Groα in the supernatant was determined by ELISA method using Human Groα Valukin Elisa kit (Biotechne, # VAL139), and the absorbance intensity at 450 nm was measured using a microplate reader (PE, EnVision2105). Data were analysed using GraphPad Prism 8.3.0.
Experimental data processing method: Data were analysed using GraphPad Prism 8.3.0.
Inhibition rate% = [(average value of positive control wells - value of sample wells)/(average value of positive control wells - average value of negative control wells)] × 100%, where the sample wells are wells containing cells plus compounds at different concentration gradients, the positive control wells are wells containing cells plus IL-17A, and the negative control wells are wells containing culture medium plus IL-17A.
Curve fitting: The IC50 value was obtained by curve fitting based on the inhibition rate (%) at each concentration using the log(inhibitor) vs. responseVariable slope (four parameters) in GraphPad Prism 6.0, and the calculation equation was Y = Bottom + (Top-Bottom)/(1+10^((LogIC50-X)*HillSlope)).
With `[2H]C1([2H])NC(=O)N([C@H](COC)c2cnc(NC(=O)[C@@H](NC(=O)c3ccnn3C(C)C)C3CCC(F)(F)CC3)s2)C([2H])([2H])C1(F)F` [Example 259, N-((S)-2-((5-((R)-1-(5,5-difluoro-2-carbonyltetrahydropyrimidin-1(2H)-yl-4,4,6,6-d4)-2-methoxyethyl)thiazol-2-yl)amino)-1-(4,4-difluorocyclohexyl)-2-carbonylethyl)-1-isopropyl-1H-pyrazole-5-carboxamide], the pIC50 is 8.26.

Molecule `CCc1nonc1C(=O)N[C@H](C(=O)Nc1ncc(C(C2CCS(=O)(=O)CC2)n2cc(Cl)ccc2=O)s1)[C@H]1CC[C@H](C)CC1` (stereo partly drawn) [Example 540-1] gave a pIC50 of 8.10.

Molecule `COCCC(c1cnc(NC(=C=O)[C@@H](NC(=O)c2ccnn2C(C)C)C2CCCCC2)s1)N1C[C@@H](C(F)(F)F)NC1=C=O` (stereo partly drawn) [Example 564, N-((1S)-1-cyclohexyl-2-((5-(3-methoxy-1-((S)-2-carbonyl-4-(trifluoromethyl)imidazolidin-1-yl)propyl)thiazol-2-yl)amino)-2-carbonylethyl)-1-isopropyl-1H-pyrazole-5-carboxamide] gave a pIC50 of 8.23.

`COC[C@H](c1cnc(NC(=O)[C@@H](NC(=O)c2ccnn2C(C)C)C2CCCCC2)s1)N1CC(F)(F)CNC1=O` [Example 565] gave a pIC50 of 8.40.

Molecule `[2H]C([2H])([2H])C([2H])([2H])n1nccc1C(=O)N[C@H](C(=O)Nc1ncc([C@@H](CN2CCOCC2)n2cc(Cl)ccc2=O)s1)[C@H]1CC[C@H](C)CC1` [Example 574] had a negative-log IC50 (pIC50) of 8.30.

Take `[2H]C([2H])([2H])C([2H])([2H])n1nccc1C(=O)N[C@H](C(=O)Nc1ncc(C(COC)n2cc(Cl)ccc2=O)s1)[C@H]1CC[C@H](C)CC1` (stereo partly drawn) [Example 586-1]: the negative-log IC50 (pIC50) was 8.08.

`CCn1nccc1C(=O)N[C@H](C(=O)Nc1ncc([C@@H](CN2CCC(OC)CC2)n2cc(Cl)ccc2=O)s1)[C@H]1CC[C@H](C)CC1` [Example 634] had a pIC50 of 8.60.

As to `CCn1nccc1C(=O)N[C@H](C(=O)Nc1ncc([C@@H](CN(C)C)n2cc(Cl)ccc2=O)s1)[C@H]1CC[C@H](C)CC1` [Example 644], the pIC50 is 8.42.

The molecule `CCn1nccc1C(=O)NC(C(=O)Nc1ncc(C(CN2CCC(OC)C2)N2CC(F)(F)CCC2=O)s1)C1CCC(C)CC1` (stereo not drawn) [Example 648] showed a negative-log IC50 (pIC50) of 8.02.

Turning to `CCn1nccc1C(=O)N[C@H](C(=O)Nc1ncc([C@@H](CN2CCC(C(=O)O)CC2)n2cc(Cl)ccc2=O)s1)[C@H]1CC[C@H](C)CC1` [Example 663], the negative logarithm of the IC50 (pIC50) was 8.80.

In turn, `CCn1nccc1C(=O)N[C@H](C(=O)Nc1ncc([C@@H](COC)n2cc(Cl)ccc2=O)s1)[C@H]1CC[C@H](C)CC1` [Example 689] gave a pIC50 of 8.28.

With `C[C@H]1CC[C@H]([C@H](NC(=O)C2(F)CC2)C(=O)Nc2ncc([C@@H](CN3CCC(CF)CC3)N3CC(F)(F)CNC3=O)s2)CC1` [Example 767], the pIC50 was 8.15.

As for `[2H]C([2H])([2H])C([2H])([2H])n1nccc1C(=O)N[C@H](C(=O)Nc1ncc([C@@H](CN2CCO[C@H](CF)C2)N2CC(F)(F)CCC2=O)s1)[C@H]1CC[C@H](C)CC1` [Example 820, N-((S)-2-((5-((R)-1-(5,5-difluoro-2-oxopiperidin-1-yl)-2-((S)-2-(fluoromethyl)morpholino)ethyl)thiazol-2-yl)amino)-1-((1r,4S)-4-methylcyclohexyl)-2-oxoethyl)-1-(ethyl-d5)-1H-pyrazole-5-carboxamide], the pIC50 is 8.52.

For the molecule `[2H]C([2H])([2H])C([2H])([2H])n1nccc1C(=O)N[C@H](C(=O)Nc1ncc([C@@H](CN2C[C@H](C)OC[C@@H]2C)N2CC(F)(F)CCC2=O)s1)[C@H]1CC[C@H](C)CC1` [Example 860, N-((S)-2-((5-((R)-1-(5,5-difluoro-2-oxopiperidin-1-yl)-2-((2S,5S)-2,5-dimethylmorpholino)ethyl)thiazol-2-yl)amino)-1-((1r,4S)-4-methylcyclohexyl)-2-oxoethyl)-1-(ethyl-d5)-1H-pyrazole-5-carboxamide], the pIC50 is 8.70.

Turning to `[2H]C([2H])([2H])C([2H])([2H])n1nccc1C(=O)N[C@H](C(=O)Nc1ncc([C@@H](CN2C[C@@H](C)OC[C@H]2C)N2CC(F)(F)CCC2=O)s1)[C@H]1CC[C@H](C)CC1` [Example 862, N-((S)-2-((5-((R)-1-(5,5-difluoro-2-oxopiperidin-1-yl)-2-((2R,5R)-2,5-dimethylmorpholino)ethyl)thiazol-2-yl)amino)-1-((1r,4S)-4-methylcyclohexyl)-2-oxoethyl)-1-(ethyl-d5)-1H-pyrazole-5-carboxamide], the pIC50 is 8.57.

Consider `CCn1nccc1C(=O)N[C@H](C(=O)Nc1ncc([C@@H](CN2C[C@@H](C)OC[C@H]2C)N2CC(F)(F)CCC2=O)s1)[C@H]1CC[C@H](C)CC1` [Example 863], for which the pIC50 was 8.49.

As for `[2H]C([2H])([2H])C([2H])([2H])n1nccc1C(=O)N[C@H](C(=O)Nc1ncc([C@@H](CN2CCC(F)(F)CC2)N2CC(F)(F)CCC2=O)s1)[C@H]1CC[C@H](C)CC1` [Example 913], the negative logarithm of the IC50 (pIC50) is 8.46.

`[2H]C([2H])([2H])C([2H])([2H])n1nccc1C(=O)N[C@H](C(=O)Nc1ncc([C@@H](CN2CCC(F)CC2)N2CC(F)(F)CCC2=O)s1)[C@H]1CC[C@H](C)CC1` [Example 919] had a negative-log IC50 (pIC50) of 8.40.

Molecule `[2H]C([2H])([2H])C([2H])([2H])n1nccc1C(=O)NC(C(=O)Nc1ncc(C(CN2CCC3C(C2)C3(F)F)N2CC(F)(F)CCC2=O)s1)C1CCC(C)CC1` (stereo not drawn) [Example 970] had a pIC50 of 8.40.

`[2H]C([2H])([2H])C([2H])([2H])n1nccc1C(=O)N[C@H](C(=O)Nc1ncc([C@@H](CN2CCC(=C(F)F)CC2)N2CC(F)(F)CCC2=O)s1)[C@H]1CC[C@H](C)CC1` [Example 980] gave a pIC50 of 8.30.

With `[2H]C([2H])([2H])OC1CCN(C[C@H](c2cnc(NC(=O)[C@@H](NC(=O)c3ccnn3C([2H])([2H])C([2H])([2H])[2H])[C@H]3CC[C@H](C)CC3)s2)N2CC(F)(F)CCC2=O)CC1` [Example 986], the pIC50 was 8.05.

The molecule `[2H]C([2H])([2H])OC1(C)CCN(C[C@H](c2cnc(NC(=O)[C@@H](NC(=O)c3ccnn3C([2H])([2H])C([2H])([2H])[2H])[C@H]3CC[C@H](C)CC3)s2)N2CC(F)(F)CCC2=O)CC1` [Example 988] had a pIC50 of 8.06.

As for `C[C@H]1CC[C@H]([C@H](NC(=O)C2(F)CC2)C(=O)Nc2ncc([C@@H](CN3CCC4(CC3)CC4(F)F)N3CC(F)(F)CNC3=O)s2)CC1` [Example 1016], the pIC50 is 8.70.

The experiment is the same for the next values; noted with them: Homo sapiens, IL-17A 30 ng/ml, 48 hours, Groα in supernatant.
`COC[C@H](c1cnc(NC(=O)[C@@H](NC(=O)c2ccnn2C(C)C)[C@H]2CC[C@H](C)CC2)s1)N1CC(F)(F)CNC1=O` [Example 327] had a pIC50 of 8.60.

Take `C[C@H]1CC[C@H]([C@H](NC(=O)C2(F)CC2)C(=O)Nc2ncc([C@@H](CN3CC4CCC(C3)O4)N3CC(F)(F)CNC3=O)s2)CC1` [Example 743]: the pIC50 was 8.22.

In turn, `[2H]C([2H])([2H])OC1CCN(C[C@H](c2cnc(NC(=O)[C@@H](NC(=O)C3(F)CC3)[C@H]3CC[C@H](C)CC3)s2)N2CC(F)(F)CNC2=O)CC1` [Example 780] had a pIC50 of 8.00.

Still in this experiment, the particulars now being: IL-17A 30 ng/ml, 48 hours, Groα in supernatant.
In turn, `CCn1nccc1C(=O)NC(C(=O)Nc1ncc(C(CN2CCC(OC)C2)N2CC(F)(F)CCC2=O)s1)C1CCC(C)CC1` (stereo not drawn) [Example 650] had a pIC50 of 8.22.

As a reminder, the pIC50 is −log10 of the IC50, conventionally taken in molar units. Higher therefore signals a low IC50.
